Molecules are shown by their SMILES. Non-standard residues stand in square brackets, D forms with d. Residues, ends and D or L forms follow the SMILES beside them. *: point of attachment. DOTA = O=C(O)CN1CCN(CC(=O)O)CCN(CC(=O)*)CCN(CC(=O)O)CC1; Tyr(3-I) = N[C@@H](Cc1ccc(O)c(I)c1)C(=O)O; Orn = NCCC[C@H](N)C(=O)O; Ahx = NCCCCCC(=O)O

One data set deals with MDA-MB-231 cells. Briefly: Cell uptake and efflux studies. Type of data set: cell-based, human. An excerpt: The goals of the cell-uptake studies were to (1) assess any changes in the structure-activity relationship resulting from the modular and responsive probe design and (2) evaluate the retention of the iodine containing hydrophobic peptide moiety in treated and untreated cells. Metastatic human breast MDA-MB-231 cells were used to evaluate whether the amino acid sequence modulation would enhance internalization, and how the probe would respond (intracellular) postchemotherapy. In the untreated cells, there was a higher uptake (P<0.001) of [^125I]LS734 (3.6±0.5) than [^125I]LS370 (0.3±0.3) at 2 h postincubation at 37° C. (FIG. 22A). […] The amount of iodinated fraction released by the untreated and treated cells at 3 h (post 2 h incubation and removal of excess activity) was used as a measure of the efflux activity.
MDA-MB-231 cells used for the uptake and efflux assay were grown on 24-well tissue culture plates until they were 80-90% confluent with […] cells per well. […] The experimental treatment group of cells was treated with 10 ng/ml of SN-38 (7-ethyl-10-hydroxy-camptothecin, Sigma Aldrich) for 24 h. Then, the SN-38 was removed, and the second chemotherapeutic drug, UCN-01 (Sigma Aldrich), was introduced at a concentration of […] in 0.1% BSA per well. At this point, respective radioactive solutions ([^125I]LS734 or [^125I]LS370, 0.02 μg per well; specific activities: [^125I]LS370-40×10^6 MBq/mmol; [^125I]LS734-10×10^6 MBq/mmol) were added to treated and control groups. The solutions were added drop-wise into the wells and gently mixed to ensure homogeneous distribution. The final volume per well was 240 μl, and the plates were incubated at 37° C. (5% CO2) for 2 h. After incubation, the supernatant (fraction 1) was collected, and the cells were washed twice with 250 μl of cold serum-free media. […] Fraction 2 represents the cell efflux, which is the amount of radioactivity released from cells after the 2 h uptake. […] The radioactivity in each fraction was measured in a well counter (Packard II gamma counter).

Data set [1] can be described thus: Tissue biodistribution in tumor-bearing Balb/c mice. Type of data set: in vivo. Particulars: female, Balb/c, mouse, thyroid, iv, 0.185 MBq, total radioactivity; 1 h post injection. The method, then: (§1) The structure-activity relationship was evaluated in vivo by performing a tissue biodistribution study in naive (FIG. 26) and tumor-bearing Balb/c mice (FIG. 23). […] The tumor/blood ratios for both [^125I]LS370 and [^125I]LS734 was 0.6±0.03. The tumor/muscle ratios were similar as well but higher than the tumor/blood ratios, [^125I]LS734 (2.2±0.1) and [^125I]LS370 (2.1±0.3). Thyroid uptake was 73±21 and 115±73 for [^125I]LS370 and [^125I]LS734, respectively.
(§2) All animal studies were conducted according to guidelines on the humane care and use of laboratory animals under protocols approved by the Animal Studies Committee at Washington University School of Medicine. For tissue biodistribution studies, syngeneic breast tumor models were prepared via bilateral orthotopic implantation of luciferase-transfected 4T1 mouse mammary carcinoma cells (4T1luc, 5×10^5 cells per tumor) in the mammary fat pads of 6-week-old, female Balb/c mice (NCI, Frederick, Md., USA). Studies were conducted when the tumors reached about 3 mm maximum diameter (−10 days). Healthy female Balb/c mice (n=4 per time point) were anesthetized with 1-2% vaporized isoflurane and injected via tail vein with 0.185 MBq of [^125I]LS370 or [^125I]LS734 (specific activities: [^125I]LS370-40×10^6 MBq/mmol; [^125I]LS734-10×10^6 MBq/mmol). At 1 h post injection, mice were killed. Organs of interest were removed and blotted dry. The radioactivity was measured in a gamma counter (Packard II gamma counter). Diluted standard doses (1:100) were prepared and counted along with the samples. Data points were corrected for radioactive decay. The percent injected dose per gram of tissue (% ID/g) was calculated.

Another data set has as its system 4T1luc tumors. The description is as above. The data set is classed as in vivo. The following applies: at 1 h after tail vein injection. The method, then:
as §1, §2

A word on the tissue uptake: it is the share of the injected amount in each gram of the tissue. Take `CC[C@H](C)[C@H](NC(=O)[C@H](C)NC(=O)[C@H](CC(C)C)NC(=O)[C@H](Cc1ccc(O)c(I)c1)NC(C)=O)C(=O)NCCCCCC(=O)N1CCC[C@H]1C(=O)N[C@@H](C)C(=O)N[C@@H](CC(=O)O)C(=O)N[C@@H](CCC(=O)O)C(=O)N[C@H](C(=O)N[C@@H](CC(=O)O)C(=O)NCC(=O)N[C@@H](CCCNC(=N)N)C(=O)N[C@@H](CCCNC(=N)N)C(=O)N[C@@H](CCCNC(=N)N)C(=O)N[C@@H](CCCN)C(=O)N[C@@H](CCCNC(=N)N)C(=O)N[C@@H](CCCNC(=N)N)C(=O)N[C@@H](CCCCN)C(=O)N[C@@H](CCCCN)C(=O)N[C@@H](CCCNC(=N)N)C(=O)N[C@@H](CCCCNC(=O)CN1CCN(CC(=O)O)CCN(CC(=O)O)CCN(CC(=O)O)CC1)C(N)=O)C(C)C` [[^125I]LS734] (Ac-[Tyr(3-I)]LAI[Ahx]PADEVDGRRR[Orn]RRKKRK(DOTA)-NH2): the “efflux activity: iodinated fraction released by untreated versus treated cells” value in the data set with MDA-MB-231 cells (at 3 h (post 2 h incubation and removal of excess activity), treatment SN-38 then UCN-01) is “higher amount of activity was released from untreated cells compared to treated cells”. In the data set with MDA-MB-231 cells (untreated MDA-MB-231 cells, 2 h postincubation at 37° C.), this molecule yielded a cell uptake of 3.6±0.5. Also, the tissue uptake at 1 h in data set [1] was determined as 115 ± 73 %ID/g. In addition, the blood circulation entry in the data set on 4T1luc tumors was “circulated longer in blood as compared to [^125I]LS370”.
